Assay results reported in US6338862B1, “Composition and method of use in treating sexual dysfunction using cGMP-specific phosphodiesterase type 5 inhibitors” (priority 2001, dated 2002).

Experiments:
[1] = test system: isolated human corpus cavernosum; details: cited from earlier work
[2] = test system: subjects who had been frequent users of Viagra®; assay: blinded study in volunteers, subjective evaluation whether an adequate, satisfactory erection was achieved; assay type: in vivo, human; details: oral capsule, out of 12 subjects
Procedure: In its preferred embodiment, three composition containing sildenafil citrate 12.5 mg, 25 or 50 mg containing the same amounts of L-arginine 200 mg, ginseng 100 mg, folic acid 0.5 mg, vitamin B6 100 mg and vitamin B12 0.75 mg were formulated in a capsule dosage form with suitable inert diluents to hide the identity of the product. […] In a blinded study, the volunteers were given all six products to test on an ad-lib basis. They were informed that the test includes evaluation of two formulations of sildenafil citrate. The volunteers were asked to evaluate the response subjectively whether an adequate, satisfactory erection was achieved. In its preferred embodiment, three composition containing sildenafil citrate 12.5 mg, 25 or 50 mg, and the same amounts of L-arginine 200 mg, ginseng 100 mg, folic acid 0.5 mg, vitamin B6 100 mg and vitamin B12 0.75 mg were formulated in a capsule dosage form with suitable inert diluents to hide the identity of the product. […] In a blinded study, the volunteers were given all six products to test on an ad-lib basis. They were informed that the test includes evaluation of two formulations of sildenafil citrate. At the lowest dose of 12.5 mg, when given alone, only 3 out of 12 subjects reported erection; when given as the composition described, 7 out of 12 subjects reported satisfactory erection. At 25 mg dose 8 out of 12 subjects reported satisfactory erection while 10 subjects reported satisfactory erection at 25 mg dose when given as the composition described. At 50 mg dose the difference was narrowed to 10 subjects reporting erection when given alone and 11 when given as the composition described. It is concluded from this study that using the combination of ingredients as specified in the composition, the required dose of sildenafil to treat sexual dysfunction can be reduced to achieve the same effect as when given alone but at higher does. The most significant advantage appears at lower doses. […]

men = details: controlled clinical trials; cited from earlier work

In the case of CCCc1nn(C)c2c(=O)[nH]c(-c3cc(S(=O)(=O)N4CCN(C)CC4)ccc3OCC)nc12.O=C(O)CC(O)(CC(=O)O)C(=O)O [Viagra®, 1-[[3-(6,7-dihydro-1-methyL-7-oxo-3-propyL-1H-pyrazolo[4,3-d]pyrimidin-5-yl)-4-ethoxyphenyl]sulfonyl]-4-methylpiperazine citrate], the direct relaxant effect [1] is given as “no direct relaxant effect”, the “subjects reporting satisfactory erection” value ([2]; 12.5 mg sildenafil citrate dose) is given as 3 subjects and the “subjects reporting satisfactory erection” value ([2]; 25 mg sildenafil citrate dose) is given as 8 subjects. For the same molecule, the “subjects reporting satisfactory erection” value ([2]; 50 mg sildenafil citrate dose) was 10 subjects and the “proves effective in men” value (men) was 7 out of 10.
